≈ marks a conversion by molar mass, not a printed value.
Key:
[1] = cited from earlier work
[2] = system: HepG2 cells; assay: HepG2 cell proliferation assay (XTT); type: cell-based, human; details: IMDM media with 20% FBS and 1% ethanol, read-out: predetermined IC50 concentrations
Experimental: HepG2 cells were obtained from the American Type Culture Collection (ATCC). Normal hepatocyte pool of cells was acquired from Xenotech. Cryopreserved cells in DMEM containing 5% DMSO were thawed and diluted 10-fold in phenol red free DMEM media containing 10% fetal bovine serum, 100 μg/ml penicillin/streptomycin, supplemented with Glutamax™ and sodium pyruvate. Subsequently, cells were centrifuged at 20 g for 10 minutes. The cells were resuspended in the same media with added Revitacell® to a concentration of […]. Ninety-six well cell culture treated flat bottom plates were seeded with 7.5×10^3 cells in 100 μl and incubated at 37° C., 7.5% CO2, >95% relative humidity for 18 hours to allow cellular adhesion after which media was replaced with like media (DMEM, IMDM, Williams E) containing 1 to 20% FBS and various test compounds (10 μg/ml to 100 ng/ml). After 48 hours (2 doublings of cells), sodium; 2-(2-methoxy-4-nitro-5-sulfonatophenyl)-3-(2-methoxy-4-nitro-5-sulfophenyl)-N-phenyltetrazol-3-ium-5-carboximidate (XTT) (300 μg/ml) was added, and cells incubated for 2 hours. Formazan production was measured at 450 nm on a Varioskan lux spectrophotometer. Non-specific absorption was measured at 660 nm and subtracted from the reference measurement at 450 nm. Experiments were performed in triplicates (n=3). […]
The objectives of this example are to, first, establish the procedure of a two-component interaction study; and second, establish a method of analysis to identify potential interactions among the two components/compounds. […] Following 48 hours of incubation, the IC50 values of various mixtures were obtained and compared with the pure compound's IC50 values and predicted/calculated IC50 values for the various mixtures. […]
Samples from the serial dilutions were analyzed by LC-MS/MS to orthogonally confirm concentrations. […]
To assess potential interactions, the IC50 values for individual cannabinoids in the control lanes were calculated and used to predict and IC50 value for the summation of their individual components.

[3] = system: HepG2 cells; assay: rtPCR gene expression analysis (TaqMan array card); type: cell-based, human
Experimental: Target cancer gene pathways were analyzed using a custom Taqman® array card exploring 90 unique genes associated with cancer related pathways (Kanehisa, Goto et al. 2010).
Two million HepG2 cells in IMDM media with 20% FBS, and 1% ethanol were seeded in T75 flasks and incubated at 37° C., 7.5% CO2 until 70-80% confluent (approx. […]). […] Untreated cells were included as a negative control. Glyceraldehyde-3-phosphate dehydrogenase (GAPDH) was included as an endogenous control and used for normalization of the data.
Following a 6-hour incubation with the test compounds, the RNA was extracted using Invitrogen's Dynabead mRNA DIRECT kit using the recommended protocol to provide 50 μL of a purified mRNA solution. Fifty μL of RT master mix was mixed into the mRNA solution and the mixture left to react at 37° C. for 60 minutes. Reverse transcriptase inactivation was performed at 95° C. for 5 minutes and the resulting cDNA samples were kept at 4° C. until use. Fifty-five microliters of TaqMan Fast Advance master mix were added to an equal amount of cDNA sample containing 1 μg/100 μl of cDNA, which was loaded into each card reservoir. The cards were centrifuged twice at 1200 RPM for 3 minutes in a Legend XFR centrifuge and the rtPCR reaction was conducted in a QuantStudio7 PCR instrument using the recommended settings with 40 amplification cycles. Data processing was done using ThermoFisher's Connect™ application.

[4] = system: PDX tumor model (575); assay: In vivo PDX model with drug-loaded nanonails; set-up: species or system NCG mice; details: intra-tumoral nanonail, 72 hours
Experimental: Drug candidates were mixed with FITC-labeled PEG-5000 with a milligram ratio of 2:8 in a suitable solvent and lyophilized to dryness. Samples of the resultant mixtures (10 mg) were loaded into nanonails (Kibur Medical Inc.), a device invented to test multiple samples in a single tumor. The dimension of the cylindrical device is 4 mm×820 μm containing 18 reservoirs 200 μm wide and 250 μm deep. The loaded devices were kept at −80° C. until tumor implant. NCG mice (female, 8-12 weeks old) from Charles River were injected subcutaneously with 100 μL of LIXF-575 cells per mouse. The body weight of the mice and caliper measurements of the tumors were performed every 3 days until the tumors reached 300-400 mm^3 (about 12 weeks). Nine mice were used for intra-tumoral implantation. […]

[5] = Cell Cycle, 6 h at IC50 concentration, relative to negative control
[6] = MAP kinase, 6 h at IC50 concentration, relative to negative control
[7] = PI3K pathway, 6 h at IC50 concentration, relative to negative control

C=C(C)[C@@H]1CCC(C)=C[C@H]1c1c(O)cc(CCCCC)c(C(=O)O)c1O [CBDA, cannabidiolic acid]
times more water soluble compared to CBD ([1]; CBDA versus its decarboxylated counterpart): about 25,000 times
water solubility [1]: 17.5 mg/mL (≈ 48.8 mM)

CCCCCc1cc2c(c(O)c1C(=O)O)-c1cc(C)ccc1C(C)(C)O2 [CBNA, cannabinolic acid]
IC50 [2]: 20 µM
ΔΔCt VEGFA ([3]; Angiogenesis, 6 h at IC50 concentration, relative to negative control): −2.861
ΔΔCt BAX [3, 5]: −1.062
ΔΔCt BECN1 [3, 5]: −1.7
ΔΔCt CCND2 [3, 5]: −1.539
ΔΔCt CCNE1 [3, 5]: −2.445
ΔΔCt CDK1 [3, 5]: 1.051
ΔΔCt CDK2 [3, 5]: 1.102
ΔΔCt MNT [3, 5]: −1.868
ΔΔCt MITF ([3]; Drug Resistance, 6 h at IC50 concentration, relative to negative control): −2.367
downregulation of the ERBB2/HER2 receptor ([3]; HepG2, 6 hour timeframe): 8 fold
ΔΔCt ERBB2 [3, 6]: 3.097
ΔΔCt MAP1LC3A [3, 6]: −1.26
ΔΔCt MAP2K2 [3, 6]: −1.607
ΔΔCt RASA1 [3, 6]: −1.904
ΔΔCt PIK3CA [3, 7]: −1.639
ΔΔCt PTEN [3, 7]: −1.446
ΔΔCt SMAD3 ([3]; TGF signaling, 6 h at IC50 concentration, relative to negative control): 2.577
cell proliferation (Ki67) in nanonail implanted 575 PDX tumors [4]: not significantly affected

From patent publication US20260232699A1, “COMPOSITIONS OF A CANNABINOID AND A KINASE INHIBITOR FOR THE TREATMENT OF CANCER” (SINOVEDA CANADA INC., priority 2023, published 2026)
